The structures appear in SMILES notation.

Series [1] can be described thus: Bioavailability in the Male Rat (AUC method). It is filed as in vivo, male rats of the Sprague-Dawley strain. Particulars: id vs iv, 4 μmol/kg; for bioavailability: blood, 4 umol/kg, read-out: Bioavailability measured by the AUC-method, F %, Rat. The source says:
The results from tests on two different animal species, rat and dog, vary in regard to measured level of bioavailability for the same compound. We believe that the rat is the more relevant species for bioavailability testing. This is based on our belief that liver metabolism has the most predominant impact upon bioavailability, and that the liver metabolic pattern in man for this type of compounds is quite similar to that of the male rat (more so than of the female rat and the dog). Moreover, test results of bioavailability in the male rat will tend to give a broader "spread" compared with the test results in the dog, and thus the male rat model will give more clear differences in bioavailability between different compounds. Stated in another way, the bioavailability as tested in the male rat can be expected to give a better estimate of the relative differences in man between different test compounds compared with the test results obtained when using the same compounds in the dog.
(§1) Bioavailability is assessed by calculating the quotient between the area under plasma concentration (AUC) curve following intraduodenal (id) administration and intravenous (iv) administration from the rat or the dog. Low, therapeutically relevant doses, were used. This method is scientifically recognized as valid for assessing bioavailability (see for instance: M. Rowland and T. N. Tozer, Clinical Pharmacokinetics, 2nd ed., Lea & Febiger, London 1989, p 42).
Bioavailability in the Male Rat
Male adult rats of the Sprague-Dawley strain were used. One day, prior to the experiments, all rats were prepared by cannulation of the left carotid artery under anaesthesia. The rats used for the intravenous experiments, were also cannulated in the jugular vein. […]
The area under the blood concentration vs time curve, AUC, was determined by the linear trapezoidal rule and extrapolated to infinity by dividing the last determined blood concentration by the elimination rate constant in the terminal phase. The systemic bioavailability (F%) following intraduodenal administration was calculated as [formula]

In series [2] the test system is gastric acid secretion. As to the kind of experiment: Inhibition of Gastric Acid Secretion in the Conscious Dog. It is filed as in vivo, Harrier dogs. Particulars: for ED50: Canis lupus familiaris, dog, histamine-stimulated, acid output 2 h after dosing. As to the method:
(§2) The potency for inhibition of acid secretion has been measured in the male rat and the dog, both intravenously and intraduodenally. When it comes to relevance of the animal test data for potency of a given compound in man for the present type of compounds, it is believed that potency in man will correspond to a level somewhere between what is measured in the male rat and what is measured in the dog.
(§3) Inhibition of Gastric Acid Secretion and Bioavailability in the Conscious Dog
(§4) Harrier dogs of either sex were used. They were equipped with a duodenal fistula for the administration of test compounds or vehicle and a cannulated ventricular fistula for the collection of gastric secretions.
Before secretory tests the animals were fasted for about 18 h but water was freely allowed. Gastric acid secretion was stimulated by a 4 h infusion of histamine dihydrochloride (12 ml/h) at a dose producing about 80% of the individual maximal secretory response, and gastric juice collected in consecutive 30-min fractions. Test substance or vehicle was given id or iv 1 h after starting the histamine infusion, in a volume of 0.5 ml/kg body weight. The acidity of the gastric juice samples were determined by titration to pH 7.0, and the acid output calculated. The acid output in the collection periods after administration of test substance or vehicle were expressed as fractional responses, setting the acid output in the fraction preceding administration to 1.0. Percentage inhibition was calculated from fractional responses elicited by test compound and vehicle. ED50 -values were obtained by graphical interpolation on log dose-response curves, or estimated from single-dose experiments under the assumption of the same slope of the dose-response curve for all test compounds. All results reported are based on acid output 2 h after dosing.

Series [3] can be described thus: Bioavailability in the Conscious Dog (AUC method). It is filed as in vivo, Harrier dogs. The settings on record: plasma, id vs iv, AUCid/AUCiv, read-out: Bioavailability measured by the AUC-method, F %, Dog. As for the experimental part:
as §1, §3, §4
Blood samples for the analysis of test compound concentration in plasma were taken at intervals up to 3 h after dosing. Plasma was separated and frozen within 30 min after collection. AUC (area under the plasma concentration-time curve), extrapolated to infinite time, was calculated by the linear trapezoidal rule. The systemic bioavailability (F%) after id administration was calculated as 100×(AUCid /AUCiv).

The nature of series [4]: Chemical Stability at pH 7. It is filed as physicochemical. Particulars: pH 7, 37° C., aqueous buffer solution; for half-life: read-out: Chemical Stability at pH 7, half-life (t 1/2) (converted). As for the experimental part:
The chemical stability of various compounds of the invention has been followed kinetically at low concentration at 37° C. in aqueous buffer solution at different pH values. The results in Table 3 show the half life (t1/2) at pH 7, that is the time period after which half the amount of the original compound remains unchanged.

In series [5] the test system is gastric acid secretion. As to the kind of experiment: Inhibition of Gastric Acid Secretion in the Conscious Male Rat. It is filed as in vivo, male rats of the Sprague-Dawley strain. Particulars: 2 h, pentagastrin and carbachol stimulation, second hour after administration. As to the method:
(§5) Since the bioavailability model described above is time and labour intensive, and requires a large number of plasma analyses, also a rough screening model, based on relative potencies to inhibit acid secretion, has been used (see for instance: A. Goth, Medical Pharmacology, 7th ed., C. V. Mosby Company, Saint Louis 1974, p 19). Thus, the ratio (called "Bioavailability" in Table 3) between the ED50 at intravenous administration and the ED50 at intraduodenal administration was calculated.
as §2
(§6) Inhibition of Gastric Acid Secretion in the Conscious Male Rat
(§7) Male rats of the Sprague-Dawley strain were used. They were equipped with cannulated fistulae in the stomach (lumen) and the upper part of the duodenum, for collection of gastric secretions and administration of test substances, respectively. A fourteen days recovery period after surgery was allowed before testing commenced.
(§8) Before secretory tests, the animals were deprived of food but not water for 20 h. The stomach was repeatedly washed through the gastric cannula, and 6 ml of Ringer-Glucose given s.c. Acid secretion was stimulated with a infusion during 3.5 h (1.2 ml/h, s.c.) of pentagastrin and carbachol (20 and 110 nmol/kg h, respectively), during which time gastric secretions were collected in 30-min fractions. Test substances or vehicle were given iv or id at 90 min after starting the stimulation, in a volume of 1 ml/kg. Gastric juice samples were titrated to pH 7.0 with NaOH, 0.1 mol/L, and acid output calculated as the product of titrant volume and concentration. Further calculations were based on group mean responses from 4-5 rats. The acid output during the periods after administration of test substances or vehicle were expressed as fractional responses, setting the acid output in the 30-min period preceding administration to 1.0. Percentage inhibition was calculated from the fractional responses elicited by test compound and vehicle. ED50 -values were obtained from graphical interpolation on log dose-response curves, or estimated from single-dose experiments assuming a similar slope for all dose-response curves. An estimation of the bioavailability was obtained by calculating the ratio ED50 iv/ED50 id. The results reported are based on gastric acid secretion during the second hour after drug/vehicle administration.

Test in series [6]: as above
It is filed as in vivo, male rats of the Sprague-Dawley strain. The settings on record: in vivo, ratio ED50 iv/ED50 id, read-out: "Bioavailability" measured by the Rough Screening Model, Rat ED50 iv/ED50 id. As for the experimental part: as §5, §2, §6, §7, §8

[7] abbreviates: id, read-out: Inhibition of acid secretion, Rat ED50, id.
[8] abbreviates: iv, read-out: Inhibition of acid secretion, Rat ED50, iv.

The ED50 is the midpoint of the dose-response relation. `COc1ccnc(C[S+]([O-])c2nc3c(F)cccc3[nH]2)c1` (stereo not drawn) [Example 1, 4-fluoro-2-[[(4-methoxy-2-pyridinyl)methyl]sulfinyl]-1H-benzimidazole]: the bioavailability in series [1] is 96%; in series [3], 95%; in series [6], 40%. Besides, the ED50 in series [2] (id, read-out: Inhibition of acid secretion, Dog ED50, id) is 0.9 µmol/kg; in series [2] (iv, read-out: Inhibition of acid secretion, Dog ED50, iv), 0.8 µmol/kg; in series [5] (setting [7]), 2.4 µmol/kg; in series [5] (setting [8]), 0.96 µmol/kg. The “Chemical Stability at pH 7, half-life (t 1/2)” value in series [4] is on record as 23 h. Further, in series [4], the half-life is 23 h.
For `CC(C)Oc1ccnc(C[S+]([O-])c2nc3cc(F)ccc3[nH]2)c1` (stereo not drawn) [Ref., 5-fluoro-2-[[(4-isopropoxy-2-pyridinyl)methyl]-sulfinyl]-1H-benzimidazole], in series [1], the bioavailability worked out at 31% and the “Bioavailability measured by the AUC-method, F %, Rat” value was 31%. Further, the “inhibition (of acid secretion), Dog 1” value in series [2] (Dog 1, 3 μmol/kg, id) was found to be 95%. Moreover, the “inhibition (of acid secretion), Dog 2” value in series [2] (Dog 2, 3 μmol/kg, id) was determined as 98%. Besides, in series [4], the “Chemical Stability at pH 7, half-life (t 1/2)” value turned out to be 14 h and the half-life was 14 h. For the same compound, the ED50 in series [5] (setting [7]) turned out to be 4 µmol/kg. Moreover, the ED50 in series [5] (setting [8]) is 1.8 µmol/kg. Besides, in series [6], the bioavailability is 45%.

For the origin of these results see US5025024A, “Therapeutically active fluoro-substituted compound” (priority 1988, dated 1991).
